Where “and” joins values, the source holds several entries; their conditions need not be identical. Identical values can stand only once.
Key:
[1] = test system: cell membranes or tight junctions; format: cell-based
Text: Diketopiperazine facilitate transcellular transport of biologically active agents across biological tissues however they are not penetration enhancers. Penetration enhancers are compounds that improve drug movement across biological tissues by disrupting cell membranes. Examples of penetration enhancers are surfactants and soaps. […] Diketopiperazine/insulin powder compositions are soluble at the physiological pH of the lung surface and dissolve rapidly after inhalation. Once dissolved, the DKP facilitates passive transcellular transport of the insulin.

[2] = Laser diffraction particle size analysis; format: physicochemical
Text: The microparticles described in Examples 6 and 7 were subjected to laser diffraction particle size analysis (SympatecGmbH, Germany) (FIGS. 1A and 1B).

Row | Structure (SMILES) | cell viability [1] | disruption of cell membranes or tight junctions [1] | Fine Particle Fraction (<5.8 μm) [2] | Particle Size 0.5-5 μm [2] | Particle Size <3 μm [2] | VMD (volume median diameter) [2] | X10 [2] | X16 [2] | X50 [2] | X84 [2] | X90 [2] | X99 [2]
1 | O=C(O)/C=C/C(=O)NCCCCC1NC(=O)C(CCCCNC(=O)/C=C/C(=O)O)NC1=O (stereo not drawn) [FDKP, 3,6-di(fumaryl-4-aminobutyl)-2,5-diketopiperazine] | does not compromise cell viability | does not disrupt cell membranes or tight junctions | – | – | – | – | – | – | – | – | – | –
2 | O=C([O-])C=CC(=O)NCCCCC1NC(=O)C(CCCCNC(=O)C=CC(=O)[O-])NC1=O.[Na+].[Na+] (stereo not drawn) [Preparation A] | – | – | 91.46% and 86.01% | 87.91% and 80.13% | 53.39% and 47.37% | 3.70 μm and 3.76 μm | 1.60 μm and 1.55 μm | 1.44 μm and 1.36 μm | 2.89 μm and 3.11 μm | 4.60 μm and 5.53 μm | 5.47 μm and 6.64 μm | 19.20 μm and 14.04 μm

Source: patent US10912821B2, “Diketopiperazine salts for drug delivery and related methods” (MannKind Corporation, priority 2004, dated 2021)
